# Laboratory results published in PMC3095642, “New Synthetic Thrombin Inhibitors: Molecular Design and Experimental Verification” (PLoS ONE, 2011).
# Like-named read-outs stand apart in the source and are kept apart here. Marks after values point to notes of the source that are not given here.
# Tests used:
# [1] = biological target: T1, Human thrombin (Homo sapiens, UniProt P00734); experiment: Thrombin induced hydrolysis of specific substrates in buffer system; assay type: biochemical
# T1 construct: Human thrombin (8.3 mg/ml) was obtained from Hematologic Technologies Inc; purchased Hematologic Technologies Inc. (Essex Junction, VT, USA)
# Description: The kinetics of thrombin inhibition was determined from the hydrolysis reaction of a specific substrate by thrombin in the presence of the tested substances. The chromogenic substrate (Tosyl-Gly-Pro-Arg-p-nitroanilide) or fast fluorogenic substrate (BOC-Ala-Pro-Arg-AMC) was used.
# Plate wells were filled with 20 mM HEPES (pH 8.0) containing 140 mM NaCl and 0.1% polyethylene glycol (molecular weight 6000 Da). Thereafter, substrate was sequentially added to each well (final concentration, 100 µM), followed by the substance being tested (to a final concentration that was varied) and thrombin (final concentration, 0.2 nM). The hydrolysis rate was monitored spectrophotometrically at 405 nm (absorption maximum of the reaction product – p-nitroaniline), or fluorometrically (λex = 380 nm; λem = 440 nm for fluorescent reaction product 7-amino-4-methylcoumarine).
# The initial rate was determined as the slope of the linear portion of the kinetic curve over the first 10 to 20 min of measurement. The inhibitory effect was expressed as the percentage reduction of the initial hydrolysis rate. The reaction rate in the absence of inhibitor was taken as 100%. Each result is the mean of two parallel determinations.
# The inhibitor concentration was determined decreasing hydrolysis rate to 50% (IC50). Values of the inhibition constants were calculated on the assumption about competitive mechanism of inhibition using equation (1) [drawing 1] (1) where: KI - the constant of inhibition,
# • S - the concentration of a substrate (100 µM), • KM - the Michaelis constant of a specific substrate for thrombin (9.44 µM, average from ref. [23], [24] and our measurements for chromogenic and 13 µM for the fluorogenic substrate, respectively).
# [2] = tested on: thrombin generation in normal donor plasma (PPP); experiment: Thrombin generation test in plasma (endogenous thrombin potential, ETP); assay type: biochemical, human
# Description: The kinetics of thrombin generation in plasma was monitored using a modification of the standard method using a slow fluorogenic substrate BOC-Ile-Gly-Arg-AMC [8]. Normal donor plasma (PPP) was placed in the wells (90 µl/well) of a 96-well flat-bottom microtiter plate, after which 10 µl of the substance solution to be tested was added in different concentrations, along with 10 µl of the slow fluorogenic substrate (initial concentration 5 mM). In the control wells (without inhibitor), 10 µl of the solvent used was added (20 mM HEPES, pH 7.5 and 140 mM NaCl; or pure ethanol, or dimethylsulfoxide (DMSO) for different substances). The samples were incubated at 37°C for 3–5 min before being activated with thromboplastin, which was a 1∶250 dilution of a standard prothrombin time reagent (Renam, Moscow, Russia) in the same buffer supplemented with 90 mM CaCl2. The final concentration of tissue factor during activation was about 4 pM. Thromboplastin (25 µl) was added to all wells simultaneously using a multichannel micropipette. The moment of thromboplastin addition was taken as time zero. The kinetics of accumulation of the fluorescent reaction product 7-amino-4-methylcoumarine (AMC) was recorded for 65 min with a fluorometric Fluoroscan II reader (LabSystem, Finland) (λex. = 380 nm; λem. = 440 nm). The results were averaged over two parallel samples. The error of parallel measurements was within 2–5%. At every moment, the rate of product accumulation is proportional to the instant thrombin concentration present in plasma. Therefore, the curve for the temporal evolution of thrombin in the system may be obtained using differentiation of the curve for AMC accumulation. For each sample, arbitrary fluorescence units were converted to absolute AMC concentrations using the calibration signal obtained by adding a known AMC concentration into each particular plasma sample in the presence of the fluorogenic substrate and the tested substance. The corrections were done taking into account the substrate consumption and the nonlinearity of the AMC calibration curve. The area under the thrombin time curve over a period of 60 min (endogenous thrombin potential, ETP) was determined.
# [3] = tested on: C57Bl/6 mice; experiment: Acute toxicity in mice; assay type: in vivo, mouse; settings: females, mortality after 2 or less hours
# Description: Preliminary safety examination for the best synthesized inhibitors was carried out by measuring their acute toxicity in C57Bl/6 mice (females, 26–28 g, intraperitoneal administration). The total number of animals used in each experiment was 20–35. The dose of inhibitor that caused mortality in half of the animals after 2 or less hours (LD50) was determined. […] For administration of different doses of an inhibitor, different volumes of the initial stock inhibitor solution were supplemented with corresponding volumes of vehicle (20% cremophore EL in normal saline) to obtain a constant administered volume of 1.8 ml in each case. To obtain the highest doses of inhibitors, the animals were injected with 2.3 ml of stock inhibitor solutions instead.
# [4] = tested on: hemodilution-induced hypercoagulation in rats; experiment: Model of hemodilution-induced hypercoagulation in rats; assay type: in vivo, rat; settings: 23.0±4.5% blood loss, infusion of saline supplemented with 2 µM inhibitor, 10, 30 or 60 min after infusion
# Description: In particular, 200 µl of PPP samples were placed in the wells of a 96-well plate. Then, 2 µl of a solution of fluorogenic substrate BOC-Ile-Gly-Arg-AMC in DMSO (initial concentration 41 mM) was added, and coagulation was triggered by 3 µl of activator, which was a 1∶20 dilution of a standard prothrombin time reagent (Renam, Moscow, Russia) in the buffer (20 mM HEPES, 140 mM NaCl, pH 7.5) supplemented with 1.4 M CaCl2. Measurement of fluorescence (120 min) and processing of the results obtained were carried out by the methods described earlier.
# The anticoagulation activity of one of the new thrombin inhibitors (4i) was studied in vivo in a newly developed model of hemodilution-induced hypercoagulation in rats. Experiments were carried out on male outbred white rats weighing 250–450 g and housed in a vivarium. A polyethylene cannula was implanted into the right femoral artery of the rats, which were anesthetized with thiopental (40 mg/kg of body weight, i.p.), to a depth of 4–5 cm. […] Coagulation was analyzed in samples of blood collected before hemodilution for all animals. […] The volume of blood loss was calculated on the assumption that the total blood volume of the rat is equal to 6.5% of the body weight.
# [5] = tested on: C57Bl/6 mice; settings: ref [38]; cited from earlier work
# [6] = tested on: thrombin generation in normal donor plasma (PPP); settings: ref [36], [37], read-out: IC50 for ETP reduction; cited from earlier work
# [7] = fast fluorogenic substrate (SFLUO), 100 µM, thrombin 0.2 nM, read-out: Inhibition of specific thrombin substrate hydrolysis in buffer system IC50
# [8] = fast fluorogenic substrate (SFLUO), calculated from IC50 assuming a competitive mechanism of inhibition, read-out: Inhibition of specific thrombin substrate hydrolysis in buffer system KI
# [9] = Table S2, read-out: IC50 for ETP reduction in plasma
# [10] = chromogenic substrate (SCHR), calculated assuming competitive type of inhibition, read-out: Inhibition of thrombin activity (in buffer system) Ki
# [11] = chromogenic substrate (SCHR), read-out: Inhibition of thrombin activity (in buffer system) IC50
# [12] = ETP reduction by 50% in plasma in vitro, read-out: IC50 for reduction of thrombin generation in plasma
# [13] = chromogenic substrate Tosyl-Gly-Pro-Arg-p-nitroanilide, calculated assuming competitive inhibition, KM 9.44 µM, read-out: KI for thrombin inhibition in buffer system
Structure (SMILES),"IC50 [1, 11]","LD50 (mouse), intraperitoneal administration [3]","IC50 [2, 12]","Ki [1, 13]",other results
CC(=O)C1CCC2C3CC=C4CC(SC(=N)N)CCC4(C)C3CCC12C (stereo not drawn) [NSC 123477],–,–,–,–,"IC50 [1, 7]: 75000 nM; Ki [1, 8]: 8600 nM"
CNC(=N)SCCCOc1cc(C)cc(OS(=O)(=O)c2ccccc2Cl)c1 [8g],5500 nM,–,–,–,"IC50 [2, 9]: 25200 nM; Ki [1, 10]: 474 nM"
Cc1cc(OCC[n+]2ccc(N)cc2)cc(OS(=O)(=O)c2ccccc2)c1.[I-] [4i],9 nM,418.9 ± 33.0 mg/kg,250 nM,0.78 nM,Effect on development of hypercoagulation (change of ETP relative to initial level) [4]: canceled the hypercoagulation effect of hemodilution
CC12CCC3C(CC=C4CC(SC(=N)N)CCC43C)C1CCC2=O (stereo not drawn) [NSC 41339],–,–,–,–,"IC50 [1, 7]: 240000 nM; Ki [1, 8]: 27600 nM"
CC1CNc2c(cccc2S(=O)(=O)N[C@@H](CCCNC(=N)N)C(=O)N2CC[C@@H](C)C[C@@H]2C(=O)O)C1 (stereo partly drawn) [Argatroban],–,–,650 nM,–,"LD50 (mouse), intraperitoneal administration [5]: 475 mg/kg; IC50 [6]: 600 to 970 nM"
CC(C)(C)CC(C)(C)c1ccc(OCCSC(=N)N)cc1 [NSC 4482],–,–,–,–,"IC50 [1, 7]: 3450 nM; Ki [1, 8]: 400 nM"
N=C(N)c1ccc(-c2ccc(-c3ccc(C(=N)N)cc3)o2)cc1 [NSC 305831],–,–,–,–,"IC50 ([1]; chromogenic substrate (SCHR), 100 µM, thrombin 0.2 nM, read-out: Inhibition of specific thrombin substrate hydrolysis in buffer system IC50): 72000 nM; Ki ([1]; chromogenic substrate (SCHR), calculated from IC50 assuming a competitive mechanism of inhibition, read-out: Inhibition of specific thrombin substrate hydrolysis in buffer system KI): 6200 nM"
CNC(=N)SCCOc1cc(C)cc(OS(=O)(=O)c2ccccc2Cl)c1.I [8h],65.8 nM,>287.0 ^5) mg/kg,530 nM,5.7 nM,–
Cc1cc(OCCCSC(=N)N)cc(OS(=O)(=O)c2ccccc2Cl)c1 [8e],11.6 nM,–,–,–,"IC50 [2, 9]: 4100 nM; Ki [1, 10]: 1 nM"
Cc1cc(OCCSC(=N)N)cc(OS(=O)(=O)c2ccccc2)c1.I [8d],11 nM,>1111.1 mg/kg,900 nM,0.95 nM,–
Cc1cc(OCCCSC(=N)N)cc(OS(=O)(=O)c2ccccc2)c1 [8a],97 nM,–,–,–,"IC50 [2, 9]: 8000 nM; Ki [1, 10]: 8.4 nM"
Cc1cc(OCCSC(=N)N)cc(OS(=O)(=O)c2ccccc2S(C)(=O)=O)c1.I [8b],17 nM,>458.0 ^5) mg/kg,800 nM,1.5 nM,–
Cc1cc(OCC[n+]2ccc(N)cc2)cc(OS(=O)(=O)c2ccc(Cl)cc2)c1.[I-] [4h],9 nM,372.7 ± 84.6 mg/kg,150 nM,0.78 nM,–
Cc1cc(OCC[n+]2ccc(N)cc2)cc(OS(=O)(=O)c2ccccc2Cl)c1.[I-] [4f],2.44 nM,679.0 ± 152.7 mg/kg,260 nM,0.21 nM,–
Cc1cc(OCCC[n+]2ccc(N)cc2)cc(OS(=O)(=O)c2ccccc2Cl)c1 [4d],3400 nM,–,–,–,"IC50 [2, 9]: 40000 nM; Ki [1, 10]: 293 nM"
Cc1cc(OCC[n+]2ccc(N)cc2)cc(OS(=O)(=O)c2ccccc2F)c1.[I-] [4e],3.5 nM,523.1 ± 92.3 mg/kg,100 nM,0.3 nM,–
Cc1cc(OCC[n+]2ccc(N)cc2)cc(OS(=O)(=O)c2ccccc2S(C)(=O)=O)c1.[I-] [4g],8.7 nM,166.7 ± 20.0 mg/kg,160 nM,0.75 nM,–
Cc1ccc2nc(-c3ccc(CSC(=N)N)cc3)oc(=O)c2c1 [NSC 328131],–,–,–,–,"IC50 [1, 7]: ~35000 nM; Ki [1, 8]: 4000 nM"
Cc1cc(OCCSC(=N)N)cc(OS(=O)(=O)c2ccccc2Cl)c1.I [8c],3.8 nM,793.5 ± 118.5 mg/kg,160 nM,0.33 nM,–
Cc1cc(OCCCSC(=N)N)cc(OS(=O)(=O)c2ccccc2F)c1.I [8f],23.5 nM,>653.1 ^5) mg/kg,1240 nM,2.03 nM,–
